Results as given in US8198273B2, “Compounds and methods for kinase modulation, and indications therefor” (Plexxikon Inc., priority 2009, dated 2012).

What was measured:
[1] = target: T1, A-Raf (Homo sapiens, UniProt P10398); assay: A-Raf biochemical kinase inhibition (AlphaScreen, biotin-MEK1 substrate); conditions: 100 μM ATP
T1 sequence (P10398 1-606): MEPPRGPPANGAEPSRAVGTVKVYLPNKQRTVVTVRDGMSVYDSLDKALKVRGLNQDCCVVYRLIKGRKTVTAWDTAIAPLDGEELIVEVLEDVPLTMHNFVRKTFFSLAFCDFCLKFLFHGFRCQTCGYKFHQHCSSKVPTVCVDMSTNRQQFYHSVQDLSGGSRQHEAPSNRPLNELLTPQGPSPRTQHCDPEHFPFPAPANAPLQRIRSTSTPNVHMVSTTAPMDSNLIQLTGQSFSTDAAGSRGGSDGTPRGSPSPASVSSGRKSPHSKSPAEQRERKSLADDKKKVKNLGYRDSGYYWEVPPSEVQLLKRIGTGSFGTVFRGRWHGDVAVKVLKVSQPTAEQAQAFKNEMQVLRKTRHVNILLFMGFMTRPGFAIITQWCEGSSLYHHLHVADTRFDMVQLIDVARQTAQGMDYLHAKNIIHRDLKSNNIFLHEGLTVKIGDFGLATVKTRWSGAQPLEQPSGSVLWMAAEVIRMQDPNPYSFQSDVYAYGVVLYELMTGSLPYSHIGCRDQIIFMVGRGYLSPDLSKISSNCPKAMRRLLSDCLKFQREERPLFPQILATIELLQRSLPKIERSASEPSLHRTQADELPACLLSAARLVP
Protocol: Compounds to be tested are diluted in dimethyl sulfoxide to a concentration of 0.1 mM. These are serially diluted 15 μL into 30 μL of dimethyl sulfoxide seven times in 96 well plates for a total of 8 dilution points, and for each dilution point 1 μL is added to a well of an assay plate. […] The reaction is started with addition of 10 μL of 200 μM ATP (i.e. final 100 μM ATP). […] The plates are incubated for 3 hours at room temperature and read on Envision reader (Perkin Elmer). […] The signal vs. compound concentration is used to determine the IC50.

[2] = target: c-Raf-1 (Homo sapiens, UniProt P04049); assay: c-Raf-1 biochemical kinase inhibition (AlphaScreen, biotin-MEK1 substrate); conditions: 100 μM ATP
c-Raf-1, sequence (P04049 whole entry): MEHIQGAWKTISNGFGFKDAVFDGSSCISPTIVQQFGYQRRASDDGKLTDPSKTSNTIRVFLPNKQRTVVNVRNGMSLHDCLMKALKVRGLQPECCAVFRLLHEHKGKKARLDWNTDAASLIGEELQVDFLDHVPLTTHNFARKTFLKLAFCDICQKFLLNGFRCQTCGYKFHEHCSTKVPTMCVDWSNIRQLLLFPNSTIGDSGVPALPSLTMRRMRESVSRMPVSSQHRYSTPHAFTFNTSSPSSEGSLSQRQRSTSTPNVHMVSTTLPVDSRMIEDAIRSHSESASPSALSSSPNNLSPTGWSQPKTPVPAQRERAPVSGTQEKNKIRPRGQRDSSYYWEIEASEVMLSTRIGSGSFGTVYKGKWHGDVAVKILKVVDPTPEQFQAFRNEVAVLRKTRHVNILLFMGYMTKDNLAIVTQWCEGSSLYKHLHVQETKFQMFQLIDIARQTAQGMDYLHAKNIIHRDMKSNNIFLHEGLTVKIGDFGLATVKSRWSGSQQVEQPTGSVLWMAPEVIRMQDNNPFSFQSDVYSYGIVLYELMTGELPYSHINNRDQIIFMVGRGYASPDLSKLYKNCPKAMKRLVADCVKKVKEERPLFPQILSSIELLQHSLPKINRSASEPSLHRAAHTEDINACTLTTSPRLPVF
Summary of the method: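 Serial 1:3 dilutions of compound (0.1 mM DMSO stock, eight points) were added first, then ATP to start the reaction at 100 μM final.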

[3] = target: CYP3A4(BQ) (Homo sapiens, UniProt P08684); assay: CYP3A4(BQ) inhibition (fluorescent substrate); assay type: in vitro ADME; conditions: read-out: Cyp IC50 3A4(BQ)
CYP3A4(BQ), sequence (P08684 whole entry): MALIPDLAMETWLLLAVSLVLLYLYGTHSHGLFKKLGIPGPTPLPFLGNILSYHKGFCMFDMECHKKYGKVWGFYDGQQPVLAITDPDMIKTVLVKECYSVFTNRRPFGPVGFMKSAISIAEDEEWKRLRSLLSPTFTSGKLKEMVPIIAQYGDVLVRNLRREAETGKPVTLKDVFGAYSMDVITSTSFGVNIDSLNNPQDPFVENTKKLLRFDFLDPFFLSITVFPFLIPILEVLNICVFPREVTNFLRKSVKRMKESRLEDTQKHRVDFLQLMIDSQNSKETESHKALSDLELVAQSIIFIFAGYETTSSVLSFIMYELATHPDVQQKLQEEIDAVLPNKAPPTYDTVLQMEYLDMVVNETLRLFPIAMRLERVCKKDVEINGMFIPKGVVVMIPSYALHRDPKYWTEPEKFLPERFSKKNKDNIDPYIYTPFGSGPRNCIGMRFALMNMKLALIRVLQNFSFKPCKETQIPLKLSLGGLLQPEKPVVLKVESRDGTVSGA
Summary of the method: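 Compound, from a 100 mM DMSO stock and diluted 1:1 over 10 points in co-factor mix, was incubated at 37° C with enzyme and a known substrate. Decrease in fluorescent product against concentration gave the IC50.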

IC50 [1]	IC50 [2]	IC50 [3]	SMILES
< 10 nM	< 10 nM	> 10000 nM	O=C(c1c(F)ccc(NS(=O)(=O)c2cc(F)ccc2F)c1F)c1c[nH]c2ncc(Cl)cc12 [P-2002, N-[3-(5-Chloro-1H-pyrrolo[2,3-b]pyridine-3-carbonyl)-2,4-difluoro-phenyl]-2,5-difluoro-benzenesulfonamide]
< 10 nM	–	> 10000 nM	COc1cnc2[nH]cc(C(=O)c3c(F)ccc(NS(=O)(=O)c4ccccc4F)c3F)c2c1 [P-2009, N-[2,4-Difluoro-3-(5-methoxy-1H-pyrrolo[2,3-b]pyridine-3-carbonyl)-phenyl]-2-fluoro-benzenesulfonamide]
< 10 nM	< 10 nM	> 10000 nM	COc1cnc2[nH]cc(C(=O)c3c(F)ccc(NS(=O)(=O)c4cc(F)ccc4F)c3F)c2c1 [P-2010, N-[2,4-Difluoro-3-(5-methoxy-1H-pyrrolo[2,3-b]pyridine-3-carbonyl)-phenyl]-2,5-difluoro-benzenesulfonamide]
< 10 nM	–	> 10000 nM	Cc1cnc2[nH]cc(C(=O)c3c(F)ccc(NS(=O)(=O)c4ccccc4F)c3F)c2c1 [P-2014, N-[2,4-Difluoro-3-(5-methyl-1H-pyrrolo[2,3-b]pyridine-3-carbonyl)-phenyl]-2-fluoro-benzenesulfonamide]
< 10 nM	–	5000 to 10000 nM	Cc1cnc2[nH]cc(C(=O)c3c(F)ccc(NS(=O)(=O)c4cccc(F)c4)c3F)c2c1 [P-2016, N-[2,4-Difluoro-3-(5-methyl-1H-pyrrolo[2,3-b]pyridine-3-carbonyl)-phenyl]-3-fluoro-benzenesulfonamide]
< 10 nM	–	> 10000 nM	O=C(c1c(F)ccc(NS(=O)(=O)c2ccccc2F)c1F)c1c[nH]c2nccc(Cl)c12 [P-2017, N-[3-(4-Chloro-1H-pyrrolo[2,3-b]pyridine-3-carbonyl)-2,4-difluoro-phenyl]-2-fluoro-benzenesulfonamide]
< 10 nM	–	> 10000 nM	O=C(c1c(F)ccc(NS(=O)(=O)c2cc(F)ccc2F)c1F)c1c[nH]c2nccc(Cl)c12 [P-2018, N-[3-(4-Chloro-1H-pyrrolo[2,3-b]pyridine-3-carbonyl)-2,4-difluoro-phenyl]-2,5-difluoro-benzenesulfonamide]
< 10 nM	–	> 10000 nM	O=C(c1c(F)ccc(NS(=O)(=O)c2cccc(F)c2)c1F)c1c[nH]c2nccc(Cl)c12 [P-2019, N-[3-(4-Chloro-1H-pyrrolo[2,3-b]pyridine-3-carbonyl)-2,4-difluoro-phenyl]-3-fluoro-benzenesulfonamide]
< 100 nM	< 10 nM	–	COc1ccnc2[nH]cc(C(=O)c3c(F)ccc(NS(=O)(=O)c4cc(F)ccc4F)c3F)c12 [P-2022, N-[2,4-Difluoro-3-(4-methoxy-1H-pyrrolo[2,3-b]pyridine-3-carbonyl)-phenyl]-2,5-difluoro-benzenesulfonamide]
–	< 10 nM	5000 to 10000 nM	CCCS(=O)(=O)Nc1ccc(F)c(C(=O)c2c[nH]c3ncc(-c4ccc(S(=O)(=O)NC)cc4)cc23)c1F [P-2167, 4-{3-[2,6-Difluoro-3-(propane-1-sulfonylamino)-benzoyl]-1H-pyrrolo[2,3-b]pyridin-5-yl}-N-methyl-benzenesulfonamide]
–	< 10 nM	< 5000 nM	CCCS(=O)(=O)Nc1ccc(F)c(C(=O)c2c[nH]c3ncc(-c4cn[nH]c4)cc23)c1F [P-2174, Propane-1-sulfonic acid {2,4-difluoro-3-[5-(1H-pyrazol-4-yl)-1H-pyrrolo[2,3-b]pyridine-3-carbonyl]-phenyl}-amide]
–	< 10 nM	> 10000 nM	CCCS(=O)(=O)Nc1ccc(F)c(C(=O)c2c[nH]c3ncc(-c4ccc(S(=O)(=O)N(C)C)cc4)cc23)c1F [P-2185, 4-{3-[2,6-Difluoro-3-(propane-1-sulfonylamino)-benzoyl]-1H-pyrrolo[2,3-b]pyridin-5-yl}-N,N-dimethyl-benzenesulfonamide]
–	< 10 nM	< 5000 nM	CCCS(=O)(=O)Nc1ccc(F)c(C(=O)c2c[nH]c3ncc(-c4cnc(SC)nc4)cc23)c1F [P-2189, Propane-1-sulfonic acid {2,4-difluoro-3-[5-(2-methylsulfanyl-pyrimidin-5-yl)-1H-pyrrolo[2,3-b]pyridine-3-carbonyl]-phenyl}-amide]
–	< 10 nM	> 10000 nM	CCCS(=O)(=O)Nc1ccc(F)c(C(=O)c2c[nH]c3ncc(-c4ccc(NC(C)=O)nc4)cc23)c1F [P-2193, N-(5-{3-[2,6-Difluoro-3-(propane-1-sulfonylamino)-benzoyl]-1H-pyrrolo[2,3-b]pyridin-5-yl}-pyridin-2-yl)-acetamide]
–	< 10 nM	> 10000 nM	CCCS(=O)(=O)Nc1ccc(F)c(C(=O)c2c[nH]c3ncc(-c4ccc(S(N)(=O)=O)cc4)cc23)c1F [P-2194, 4-{3-[2,6-Difluoro-3-(propane-1-sulfonylamino)-benzoyl]-1H-pyrrolo[2,3-b]pyridin-5-yl}-benzenesulfonamide]
–	< 10 nM	> 10000 nM	CCCS(=O)(=O)Nc1ccc(F)c(C(=O)c2c[nH]c3ncc(-c4cnc(OC)nc4OC)cc23)c1F [P-2199, Propane-1-sulfonic acid {3-[5-(2,4-dimethoxy-pyrimidin-5-yl)-1H-pyrrolo[2,3-b]pyridine-3-carbonyl]-2,4-difluoro-phenyl}-amide]
–	< 10 nM	> 10000 nM	CCCS(=O)(=O)Nc1ccc(F)c(C(=O)c2c[nH]c3ncc(-c4ccc(C)nc4)cc23)c1F [P-2213, Propane-1-sulfonic acid {2,4-difluoro-3-[5-(6-methyl-pyridin-3-yl)-1H-pyrrolo[2,3-b]pyridine-3-carbonyl]-phenyl}-amide]
–	< 10 nM	> 10000 nM	CCCS(=O)(=O)Nc1ccc(F)c(C(=O)c2c[nH]c3ncc(-c4ccc(N)nc4)cc23)c1F [P-2214, Propane-1-sulfonic acid {3-[5-(6-amino-pyridin-3-yl)-1H-pyrrolo[2,3-b]pyridine-3-carbonyl]-2,4-difluoro-phenyl}-amide]
–	< 100 nM	> 10000 nM	CCCS(=O)(=O)Nc1ccc(F)c(C(=O)c2c[nH]c3ncc(-c4ccc(S(=O)(=O)CC)cc4)cc23)c1F [P-2218, Propane-1-sulfonic acid {3-[5-(4-ethanesulfonyl-phenyl)-1H-pyrrolo[2,3-b]pyridine-3-carbonyl]-2,4-difluoro-phenyl}-amide]
–	< 10 nM	5000 to 10000 nM	CCCS(=O)(=O)Nc1ccc(F)c(C(=O)c2c[nH]c3ncc(-c4ccc(C#CCN(CC)CC)nc4)cc23)c1F [P-2222, Propane-1-sulfonic acid (3-{5-[6-(3-diethylamino-prop-1-ynyl)-pyridin-3-yl]-1H-pyrrolo[2,3-b]pyridine-3-carbonyl}-2,4-difluoro-phenyl)-amide]
–	< 100 nM	> 10000 nM	CCCS(=O)(=O)Nc1ccc(F)c(C(=O)c2c[nH]c3ncc(-c4ccc(CCCOC)nc4)cc23)c1F [P-2226, Propane-1-sulfonic acid (2,4-difluoro-3-{5-[6-(3-methoxy-propyl)-pyridin-3-yl]-1H-pyrrolo[2,3-b]pyridine-3-carbonyl}-phenyl)-amide]
–	< 10 nM	> 10000 nM	CCCS(=O)(=O)Nc1ccc(F)c(C(=O)c2c[nH]c3ncc(-c4cccc(S(C)(=O)=O)c4)cc23)c1F [P-2228, Propane-1-sulfonic acid {2,4-difluoro-3-[5-(3-methanesulfonyl-phenyl)-1H-pyrrolo[2,3-b]pyridine-3-carbonyl]-phenyl}-amide]
